In experiment [1] the test system is Human umbilical vein-derived vascular endothelial cells (HUVEC). Put plainly: Vascular endothelial cell proliferation inhibitory test (VEGF-stimulated HUVEC). The settings on record: 120 h, 5 days of culture with VEGF. Format: cell-based. The procedure, abridged: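 HUVEC (3000 cells/well) in medium with 3% FBS, cultured overnight, then given test substance plus VEGF (120 ng/mL in the added medium). After 5 days at 37 °C, Cell Counting Kit-8 was applied for 2-3 h and A450 read. IC50 relative to no-compound wells, by logistic nonlinear least-squares fit.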

Experiment [2] has as its target T1, c-Met intracellular domain protein (Homo sapiens, UniProt P08581).
T1 construct: 2.5 ng/ml of c-Met intracellular domain protein (Millipore); purchased Millipore
Nature of the experiment: Hepatocyte growth factor receptor (c-Met) kinase inhibitory activity (AlphaScreen). The class given is biochemical. Conditions: for inhibition at 1 µM: 1 μM test compound, read-out: inhibitory rate (%) at 1 μM. The procedure, abridged: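 Compound in DMSO was diluted into 50 mM Tris-HCl pH 7.5, 5 mM MgCl2, 5 mM MnCl2, 2 mM DTT, 0.01% Tween-20. Enzyme (2.5 ng/ml) and biotin-poly-Glu:Tyr (4:1) (250 ng/mL) were added as a solution at these concentrations.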

Experiment [3] deals with Human gastric cancer cell line MKN-45. Put plainly: Human gastric cancer cell line MKN-45 growth inhibitory test. The class given is cell-based. The settings on record: MKN-45, 72 h, culture for 3 days; for inhibition at 1 µM: 1 μM test substance, read-out: inhibitory rate (%) at 1 μM; for IC50: read-out: IC50 value. The procedure, abridged:
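MKN-45 cells plated at 3000/well in RPMI1640 with 0.3% FBS, then exposed to test substance for 3 days at 37 °C. Viability read by CCK-8 absorbance at 450 nm; IC50 from variable-slope sigmoidal fit, with DMSO as 100% growth and 10 µM reference c-Met inhibitor as 0% growth.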

In experiment [4] the target is T2, FLT3 intracellular domain protein (Homo sapiens, UniProt P36888).
T2 construct: 7.5 ng/ml of FLT3 intracellular domain protein (Millipore); purchased Millipore
T2 sequence (P36888 564-993 limits assumed): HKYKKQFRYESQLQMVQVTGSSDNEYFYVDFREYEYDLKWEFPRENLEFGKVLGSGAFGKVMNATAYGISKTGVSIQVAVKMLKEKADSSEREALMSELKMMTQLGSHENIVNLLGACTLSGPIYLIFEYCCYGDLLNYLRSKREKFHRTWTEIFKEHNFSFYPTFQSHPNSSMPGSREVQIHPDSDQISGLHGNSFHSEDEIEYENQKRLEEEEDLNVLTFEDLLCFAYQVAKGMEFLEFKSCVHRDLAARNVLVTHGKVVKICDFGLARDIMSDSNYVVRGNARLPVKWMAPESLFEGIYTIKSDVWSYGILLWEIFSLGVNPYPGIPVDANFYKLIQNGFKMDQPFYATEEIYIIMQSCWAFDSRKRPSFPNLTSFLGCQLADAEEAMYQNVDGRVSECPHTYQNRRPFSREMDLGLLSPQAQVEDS
Put plainly: Fms Like Tyrosine Kinase 3 (FLT3) kinase inhibitory activity (AlphaScreen). Format: biochemical. The method, boiled down: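 FLT3 intracellular domain (7.5 ng/ml) and biotin-poly-Glu:Tyr (250 ng/mL), each as added, were preincubated 5 min with compound in Tris pH 7.5 with Mg²⁺, Mn²⁺, DTT and Tween-20. ATP was added (5 μM) for 10 min at 25 °C, then EDTA stop with streptavidin donor/anti-phosphotyrosine acceptor beads for 16 h. % inhibition was calculated against the no-compound control and the no-compound/no-ATP blank.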

T1 sequence (P08581 956-1390 limits assumed): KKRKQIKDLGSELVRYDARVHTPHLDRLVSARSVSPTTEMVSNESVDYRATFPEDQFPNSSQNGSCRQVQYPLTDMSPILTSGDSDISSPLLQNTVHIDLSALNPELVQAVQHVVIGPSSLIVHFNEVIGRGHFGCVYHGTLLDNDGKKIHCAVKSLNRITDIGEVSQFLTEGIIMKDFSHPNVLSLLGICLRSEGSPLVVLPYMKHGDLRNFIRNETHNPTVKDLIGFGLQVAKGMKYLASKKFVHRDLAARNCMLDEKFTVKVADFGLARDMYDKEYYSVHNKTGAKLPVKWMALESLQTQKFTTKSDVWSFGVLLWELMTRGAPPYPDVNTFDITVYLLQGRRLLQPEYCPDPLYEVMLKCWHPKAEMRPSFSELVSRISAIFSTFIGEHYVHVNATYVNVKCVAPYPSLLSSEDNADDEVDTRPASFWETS

For the compound `O=C(Nc1cn2cc(Oc3ccc(NC(=O)N4CCN(c5ccc(F)cc5)C4=O)cc3F)ccc2n1)C1CC1` [Example 53, N-[4-({2-[(cyclopropylcarbonyl)amino]imidazo[1,2-a]pyridin-6-yl}oxy)-3-sfluorophenyl]-3-(4-fluorophenyl)-2-oxoimidazolidine-1-carboxamide], the IC50 in experiment [1] is at most 2000 nM; in experiment [2], at most 1000 nM; in experiment [3] it was at most 1000 nM; in experiment [4], at most 1000 nM. For the same compound, the inhibition at 1 µM in experiment [2] is at least 80%; in experiment [3], at least 80%; in experiment [4] (1 μM test compound, read-out: inhibitory rate (%) at 1 μM) it was at least 50%.
Turning to `Cc1ccc(C(=O)Nc2ccc(Oc3ccc4nc(NC(=O)C5CC5)cn4c3)cn2)c(=O)n1-c1ccc(F)cc1` [Example 60, N-[5-({2-[(cyclopropylcarbonyl)amino]imidazo[1,2-a]pyridin-6-yl}oxy)pyridin-2-yl]-1-(4-fluorophenyl)-6-methyl-2-oxo-1,2-dihydropyridine-3-carboxamide], the 50% inhibitory concentration (IC50) in experiment [1] was at most 2000 nM; in experiment [2] it was at most 1000 nM; in experiment [3], at most 1000 nM; in experiment [4], at most 1000 nM. In addition, the inhibition at 1 µM in experiment [2] and in experiment [3] was at least 80% each time.
As to `O=C(Nc1cn2cc(Oc3ccc(NC(=O)C4(C(=O)Nc5ccc(F)cc5)CC4)cc3F)ccc2n1)C1CC1` [Example 11, N-[4-({2-[(cyclopropylcarbonyl)amino]imidazo[1,2-a]pyridin-6-yl}oxy)-3-fluorophenyl]-N′-(4-fluorophenyl)cyclopropane-1,1-dicarboxamide], the IC50 was at most 2000 nM in experiment [1], at most 1000 nM in experiment [2], at most 1000 nM in experiment [3] and at most 1000 nM in experiment [4]. The inhibition at 1 µM in experiment [2] and in experiment [3] was at least 80% each time.

(Values after patent US8445509B2, “Fused heterocyclic derivatives and use thereof” (Takeda Pharmaceutical Company Limited, priority 2008, dated 2013).)
